According to article PMC9606921, “Phytochemical Investigation and Biological Studies on Selected Searsia Species” (Plants, 2022):
Several values for one entry are separate records, joined by “and”; a condition that tells them apart may be missing. Identical values can stand only once.

Experiments:
[1] = Ferric ion reducing antioxidant power (FRAP) assay; conditions: means ± SDs; ascorbic acid equivalents; read at 593 nm
Description: The FRAP values were generated by comparing the absorbance changes in the test mixtures with those obtained from increasing concentrations of Fe^3+ and were expressed as µM AAE/g of the samples (Figure 3).
Preparation of the FRAP reagent in a 50 mL conical flask was composed of 30 mL Acetate buffer (300 mM, pH 3.6; 1.627 g Sodium acetate + 16 mL Glacial acetic acid and made up to 1 L with distilled water) + 3 mL TPTZ 10 mM solution (0.0093 g TPTZ and 3 mL of 40 mM HCl in 15 mL flask) + 3 mL FeCl3 solution (0.054 g FeCl3.6H2O and 10 mL distilled water) and 6.6 mL of distilled water. A control solution was prepared by dissolving 0.00352 g of Ascorbic acid in 50 mL, diluted to the mark with distilled water. A standard curve was prepared as per the method described by Benzie and Strain, 1996. L-Ascorbic acid (Sigma Aldrich, Cape Town, South Africa) was used as a standard, with concentrations varying between 0 and 1000 µM. Dilutions were made for the extracts that were highly concentrated, and dilution factors were noted and considered in calculations for the relevant extracts. In a 96-well clear microplate, 10 µL of the stock solutions of the extracts (hexane, dichloromethane, ethyl acetate, methanol, and butanol) of three plants were mixed with a 300 µL FRAP reagent. The plate was read at a wavelength of 593 nm in a multiplate reader. […]

[2] = molecular target: T1, α-glucosidase (Saccharomyces cerevisiae) (Saccharomyces cerevisiae, UniProt P53341); assay: Alpha glucosidase inhibitory activity; format: biochemical; conditions: for IC50: IC50 on alpha glucosidase, concentrations 125.0-1.95 µg/mL, means ± SDs; for activity in screening against alpha glucosidase: isolated compounds tested at 125.0 µg/mL
T1 construct: purchased Sigma-Aldrich, South Africa
T1 sequence (P53341 whole entry): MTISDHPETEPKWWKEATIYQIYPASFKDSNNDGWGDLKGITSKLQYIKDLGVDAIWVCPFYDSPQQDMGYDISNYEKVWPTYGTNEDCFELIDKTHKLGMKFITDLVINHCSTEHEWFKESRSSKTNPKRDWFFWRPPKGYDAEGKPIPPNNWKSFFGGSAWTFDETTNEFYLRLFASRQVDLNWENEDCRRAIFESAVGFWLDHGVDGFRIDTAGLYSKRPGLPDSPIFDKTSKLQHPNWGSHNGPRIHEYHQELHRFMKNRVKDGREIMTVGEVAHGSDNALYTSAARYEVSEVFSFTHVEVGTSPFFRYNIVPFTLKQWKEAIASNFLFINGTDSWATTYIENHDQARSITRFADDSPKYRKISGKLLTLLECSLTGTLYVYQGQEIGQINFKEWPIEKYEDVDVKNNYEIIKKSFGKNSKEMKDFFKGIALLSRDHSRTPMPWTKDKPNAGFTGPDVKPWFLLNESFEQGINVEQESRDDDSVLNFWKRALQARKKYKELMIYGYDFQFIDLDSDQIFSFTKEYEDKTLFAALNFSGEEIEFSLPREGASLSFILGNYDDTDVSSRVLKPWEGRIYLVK
Description: (§1) The extracts of Searsia species were screened to determine their inhibition activities with respect to enzymes relevant to the management of diabetes. The extracts were tested at 2.0 mg/mL.
(§2) The isolated compounds from the three plants were tested against alpha glucosidase and alpha amylase at 125.0 µg/mL to determine their inhibitory activities.
(§3) Standards (purity > 99.0%) for antioxidants, Trolox (6-hydroxyl-2,5,7,8-tetramethylchroman-2-carboxylic acid; Saarchem, Mumbai, India), and other reagents, including ABTS (2,2′-azino-bis (3-ethylbenzo thiazoline-6-sulfonic acid) diammonium salt (Sigma), potassium-peroxodisulphate (Merck), Ethanol (Saarchem), fluorescein sodium salt (Sigma), AAPH (2,2′-azobis (2-methylpropionamidine) dihydrochloride (Aldrich), Sodium dihydrogen orthophosphate dihydrate ([…], Merck), PCA (perchloric acid, Saarchem), TPTZ (2,4,6-tri[2-pyridyl]-s-triazine), iron (III) chloride hexahydrate, and copper sulphate, were purchased from Sigma-Aldrich, Inc. (St. Louis, MO, USA). L-Ascorbic acid was procured from Sigma Aldrich, Cape Town, South Africa. Antioxidant assays, including FRAP and TEAC assays, were performed using a Multiskan spectrum plate reader, while an automated ORAC assay was performed with a Floroskan spectrum plate reader. For the enzyme inhibition studies, α-glucosidase (Saccharomyces cerevisiae), α-amylase ([…]) and 3, 5, di-nitro salicylic acid (DNS), p-nitro-phenyl-α-D-glucopyranoside (p-NPG), sodium carbonate (Na2CO3), soluble starch, sodium dihydrogen phosphate, and disodium hydrogen phosphate were purchased from Sigma-Aldrich, South Africa.
The alpha glucosidase inhibitory activities of the extracts were determined according to the standard method, with minor modifications. In a 96-well plate, a reaction mixture containing 50 μL phosphate buffer (100 mM, pH = 6.8), 10 μL alpha glucosidase (1 U/mL), and 20 μL of extract at 2.0 mg/mL was pre-incubated at 37 °C for 15 min. Then, 20 μL P-NPG (5 mM) was added as a substrate and incubated further at 37 °C for 20 min. The reaction was stopped by adding 50 μL Na2CO3 (0.1 M). The absorbance of the released p-nitrophenol was measured at 405 nm using a Multiplate Reader. The results were reported as half-maximal inhibitory (IC50) concentrations in μM. […] Each extract was tested in triplicate. (1) Inhibitory activity (%)=1 − As/Ac×100 where As is the absorbance in the presence of the test substance and Ac is the absorbance of the control.

[3] = molecular target: T2, α-amylase (procaine pancreas) (Sus scrofa, UniProt P00690); assay: Alpha amylase inhibitory assay; format: biochemical; conditions: for IC50: concentrations 125.0-1.95 µg/mL, means ± SDs; for activity in screening against alpha amylase: isolated compounds tested at 125.0 µg/mL
T2 construct: purchased Sigma-Aldrich, South Africa; host or cells: pancreas
T2 sequence (P00690 16-511): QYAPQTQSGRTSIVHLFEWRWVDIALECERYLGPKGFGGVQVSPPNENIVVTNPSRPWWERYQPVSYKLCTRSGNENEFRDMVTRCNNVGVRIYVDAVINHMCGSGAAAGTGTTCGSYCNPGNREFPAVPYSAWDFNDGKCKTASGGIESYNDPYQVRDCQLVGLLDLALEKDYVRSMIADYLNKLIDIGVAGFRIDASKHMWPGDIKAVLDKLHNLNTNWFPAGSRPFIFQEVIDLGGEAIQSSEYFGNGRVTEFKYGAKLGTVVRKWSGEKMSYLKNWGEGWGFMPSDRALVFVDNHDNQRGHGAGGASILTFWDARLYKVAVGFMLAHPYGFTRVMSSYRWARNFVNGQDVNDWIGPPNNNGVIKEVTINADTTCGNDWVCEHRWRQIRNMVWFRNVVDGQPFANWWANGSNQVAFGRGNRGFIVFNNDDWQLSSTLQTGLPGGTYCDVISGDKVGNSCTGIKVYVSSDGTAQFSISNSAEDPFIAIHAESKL
Description: as §1, §2, §3
The alpha amylase inhibitory assays of the extracts were carried out according to the standard method, with minor modifications. In a 96-well plate, the reaction mixture, containing 50 μL phosphate buffer (100 mM, pH = 6.8), 10 μL alpha amylase (2 U/mL), and 20 μL of plant extracts at 2.0 mg/mL, was preincubated at 37°C for 20 min. Then, 20 μL of 1% soluble starch (100 mM phosphate buffer pH 6.8) was added as a substrate and incubated further at 37 °C for 30 min; 100 μL of the DNS colour reagent was then added and boiled for 10 min. The absorbance of the resulting mixture was measured at 540 nm using a multiplate reader. […] The extracts or isolated compounds were measured in triplicate. The results were reported as half-maximal inhibitory (IC50) concentrations in μM. The results for both alpha amylase and alpha glucosidase were calculated using equation 1.

[4] = Oxygen radical absorbance capacity (ORAC) assay; conditions: means ± SDs; Trolox equivalents per g of plant extract
Description: ORAC was determined according to a previously described method [46], with some modifications [47]. Fluorescein was used as the fluorescent probe. The loss of fluorescence of fluorescein was an indication of the extent of oxidation through reaction with peroxyl or hydroxyl radicals. The protective effect of an antioxidant was measured by assessing the fluorescence area under the curve plot relative to that of a blank in which no antioxidant was present. The ORAC value was calculated by dividing the area under the sample curve by the area under the Trolox curve, with both areas being corrected by subtracting the area under the blank curve.

[5] = Trolox equivalent antioxidant capacity (ABTS/TEAC) assay; conditions: means ± SDs; ABTS, 734 nm, 30 min
Description: The antioxidant power of the extracts was examined using the ABTS radical decolorization assay, which measures the relative antioxidant ability to scavenge the radical ABTS^+ (2.2′-azinobis (3-ethylbenzothiazoline-6-sulfonic acid)), a blue-green chromophore with maximum absorption at 734 nm that decreases in its intensity in the presence of antioxidants.
The ABTS mix solution was diluted with ethanol to read a start-up absorbance of approximately 2.0 (±0.1). The test extracts were prepared by dissolving 1 mg of an extract in 1 mL of methanol, allowed to react with 300 µL ABTS solution in the dark at room temperature for 30 min. The absorbance was measured at 734 nm at 25 °C in a multiplate reader. The results were expressed as µM Trolox equivalents per milligram dry weight (µM TE/g) of the test samples.

SMILES | FRAP [1] [µM AAE/g] | IC50 [2] | activity in screening against alpha glucosidase [2] | IC50 [3] [µM] | activity in screening against alpha amylase [3] | ORAC [4] [µM TE/g] | TEAC [5] [µM TE/g]
O=C1O[C@H]([C@@H](O)CO)C(O)=C1O [Ascorbic acid, L-Ascorbic acid] | 390.12 ± 09.12 | – | – | – | – | – | –
CC1(C)C=C2[C@H]3CC[C@@H]4[C@@]5(C)CCC(=O)C(C)(C)[C@@H]5CC[C@@]4(C)[C@]3(C)CC[C@@]2(C(=O)O)CC1 [Compound C1, moronic acid] | – | 23.4 µM and 23.2 µM | showed activity | 44.2 | showed activity | – | –
O=c1cc(-c2ccc(O)c(-c3c(O)cc(O)c4c(=O)cc(-c5ccc(O)cc5)oc34)c2)oc2cc(O)cc(O)c12 [Compound C7, amentoflavone] | – | 10.3 µM | showed activity | 36.8 | showed activity | – | –
Cc1c(C)c2c(c(C)c1O)CCC(C)(C(=O)O)O2 (centres unmarked) [Trolox, 6-hydroxyl-2,5,7,8-tetramethylchroman-2-carboxylic acid] | – | – | – | – | – | 14.2 ± 04.01 | 205.01 ± 05.03
